Test [1] concerns the target T1, Metabotropic glutamate receptor 2 (Rattus norvegicus, UniProt P31421). Nature of the test: Displacement of [3H]LY354740 from rat mGluR2 expressed in CHO cells. The class given is cell-based. (In general: In a radioligand displacement assay an active substance lowers the binding of a labelled ligand.)
The target in test [2] is T1, Metabotropic glutamate receptor 2. As to the kind of experiment: Antagonist activity at rat mGlu2 expressed in CHO cells assessed as inhibition of (1S,3R)-ACPD-stimulated GTPgammaS binding. The class given is functional, cell-based.
Test [3] addresses Metabotropic glutamate receptor 2 (Rattus norvegicus) (UniProt P31421). As to the kind of experiment: Antagonist activity at rat mGluR2 expressed in CHO cells co expressing human Kir3.1 assessed as glutamate-induced inward potassium current. Type of test: functional, cell-based.
Test [4] deals with Metabotropic glutamate receptor 1 (Rattus norvegicus) (UniProt P23385). Nature of the test: Inhibition of glutamate-stimulated rat mGlu1a by calcium mobilization assay at 30 uM. Type of test: functional.
Chain of Metabotropic glutamate receptor 1 (Rattus norvegicus) (P23385 19-1199 limits assumed): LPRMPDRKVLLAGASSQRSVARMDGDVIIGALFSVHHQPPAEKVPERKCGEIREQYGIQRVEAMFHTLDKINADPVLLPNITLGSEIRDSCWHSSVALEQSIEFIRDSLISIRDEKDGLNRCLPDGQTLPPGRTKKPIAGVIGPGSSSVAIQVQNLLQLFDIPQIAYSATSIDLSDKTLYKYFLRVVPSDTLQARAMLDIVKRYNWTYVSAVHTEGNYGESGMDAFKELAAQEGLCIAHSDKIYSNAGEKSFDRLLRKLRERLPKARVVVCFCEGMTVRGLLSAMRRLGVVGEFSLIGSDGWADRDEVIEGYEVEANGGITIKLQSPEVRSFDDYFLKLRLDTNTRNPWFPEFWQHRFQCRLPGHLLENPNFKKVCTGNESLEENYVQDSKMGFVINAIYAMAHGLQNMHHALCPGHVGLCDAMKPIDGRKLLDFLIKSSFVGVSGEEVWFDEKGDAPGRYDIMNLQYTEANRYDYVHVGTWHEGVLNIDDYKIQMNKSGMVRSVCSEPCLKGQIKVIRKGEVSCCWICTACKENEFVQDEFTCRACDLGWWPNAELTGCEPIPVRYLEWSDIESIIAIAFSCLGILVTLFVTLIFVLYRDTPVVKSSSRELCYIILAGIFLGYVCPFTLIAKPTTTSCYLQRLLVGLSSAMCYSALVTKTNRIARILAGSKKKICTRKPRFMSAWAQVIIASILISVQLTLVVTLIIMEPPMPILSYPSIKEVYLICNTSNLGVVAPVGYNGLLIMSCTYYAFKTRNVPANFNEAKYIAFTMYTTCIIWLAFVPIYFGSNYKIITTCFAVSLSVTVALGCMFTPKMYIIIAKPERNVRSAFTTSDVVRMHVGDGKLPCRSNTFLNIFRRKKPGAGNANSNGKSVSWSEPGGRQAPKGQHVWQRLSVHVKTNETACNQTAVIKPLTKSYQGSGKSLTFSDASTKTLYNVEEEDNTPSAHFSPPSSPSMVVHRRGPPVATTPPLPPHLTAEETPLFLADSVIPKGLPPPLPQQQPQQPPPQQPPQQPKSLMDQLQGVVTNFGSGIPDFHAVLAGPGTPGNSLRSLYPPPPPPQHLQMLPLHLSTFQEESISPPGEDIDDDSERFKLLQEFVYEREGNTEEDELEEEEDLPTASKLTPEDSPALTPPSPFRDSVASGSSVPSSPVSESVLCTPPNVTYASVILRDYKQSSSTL
The species named for another test is Rattus norvegicus. Nature of the test: Displacement of [3H]L-AP4 from mGlu8a receptor.
Test [5] concerns the target Metabotropic glutamate receptor 2 (Rattus norvegicus) (UniProt P31421). Nature of the test: Displacement of [3H]LY354740 from rat mGluR2 expressed in CHO cells assessed as residual binding. The class given is cell-based.
Test [6] deals with Metabotropic glutamate receptor 5 (Rattus norvegicus) (UniProt P31424). As to the kind of experiment: Inhibition of glutamate-stimulated rat mGlu5a by calcium mobilization assay at 30 uM. Type of test: functional.
Chain of Metabotropic glutamate receptor 5 (Rattus norvegicus) (P31424 21-1203 limits assumed): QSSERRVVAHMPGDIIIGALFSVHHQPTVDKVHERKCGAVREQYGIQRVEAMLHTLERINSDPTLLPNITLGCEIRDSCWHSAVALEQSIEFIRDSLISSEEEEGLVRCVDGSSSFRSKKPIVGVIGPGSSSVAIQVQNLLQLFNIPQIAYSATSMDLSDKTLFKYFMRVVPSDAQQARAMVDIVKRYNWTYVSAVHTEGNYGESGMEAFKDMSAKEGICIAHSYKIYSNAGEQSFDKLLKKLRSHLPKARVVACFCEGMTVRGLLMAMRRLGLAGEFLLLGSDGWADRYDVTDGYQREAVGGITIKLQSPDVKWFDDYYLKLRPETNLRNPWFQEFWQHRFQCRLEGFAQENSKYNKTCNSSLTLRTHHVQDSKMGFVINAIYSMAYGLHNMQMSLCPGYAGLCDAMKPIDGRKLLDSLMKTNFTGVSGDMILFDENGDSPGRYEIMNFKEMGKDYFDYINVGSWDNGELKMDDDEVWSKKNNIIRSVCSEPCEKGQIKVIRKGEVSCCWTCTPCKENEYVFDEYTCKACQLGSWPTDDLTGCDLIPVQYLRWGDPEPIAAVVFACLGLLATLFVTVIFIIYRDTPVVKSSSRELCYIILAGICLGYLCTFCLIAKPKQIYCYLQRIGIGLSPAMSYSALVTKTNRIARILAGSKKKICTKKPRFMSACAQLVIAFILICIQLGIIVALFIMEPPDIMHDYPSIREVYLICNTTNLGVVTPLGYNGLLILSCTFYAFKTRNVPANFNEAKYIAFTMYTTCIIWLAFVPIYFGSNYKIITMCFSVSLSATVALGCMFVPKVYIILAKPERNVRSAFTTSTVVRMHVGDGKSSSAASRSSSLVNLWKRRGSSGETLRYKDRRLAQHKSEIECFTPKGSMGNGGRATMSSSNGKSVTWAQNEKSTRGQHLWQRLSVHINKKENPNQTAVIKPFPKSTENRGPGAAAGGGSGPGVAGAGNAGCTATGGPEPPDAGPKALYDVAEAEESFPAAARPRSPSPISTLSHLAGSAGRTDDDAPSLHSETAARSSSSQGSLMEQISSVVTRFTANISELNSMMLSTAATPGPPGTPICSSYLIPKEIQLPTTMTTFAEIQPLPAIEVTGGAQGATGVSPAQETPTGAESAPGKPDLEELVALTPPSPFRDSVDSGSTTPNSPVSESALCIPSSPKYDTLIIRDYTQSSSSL
The species entered for test [7] is Homo sapiens. Nature of the test: Binding affinity to GABAA.
For test [8], the target named is Metabotropic glutamate receptor 3 (Rattus norvegicus) (UniProt P31422). Nature of the test: Antagonist activity at rat mGluR3 expressed in CHO cells co expressing human Kir3.2c assessed as glutamate-induced inward potassium current. The class given is functional, cell-based.
Chain of Metabotropic glutamate receptor 3 (Rattus norvegicus) (P31422 23-879 limits assumed): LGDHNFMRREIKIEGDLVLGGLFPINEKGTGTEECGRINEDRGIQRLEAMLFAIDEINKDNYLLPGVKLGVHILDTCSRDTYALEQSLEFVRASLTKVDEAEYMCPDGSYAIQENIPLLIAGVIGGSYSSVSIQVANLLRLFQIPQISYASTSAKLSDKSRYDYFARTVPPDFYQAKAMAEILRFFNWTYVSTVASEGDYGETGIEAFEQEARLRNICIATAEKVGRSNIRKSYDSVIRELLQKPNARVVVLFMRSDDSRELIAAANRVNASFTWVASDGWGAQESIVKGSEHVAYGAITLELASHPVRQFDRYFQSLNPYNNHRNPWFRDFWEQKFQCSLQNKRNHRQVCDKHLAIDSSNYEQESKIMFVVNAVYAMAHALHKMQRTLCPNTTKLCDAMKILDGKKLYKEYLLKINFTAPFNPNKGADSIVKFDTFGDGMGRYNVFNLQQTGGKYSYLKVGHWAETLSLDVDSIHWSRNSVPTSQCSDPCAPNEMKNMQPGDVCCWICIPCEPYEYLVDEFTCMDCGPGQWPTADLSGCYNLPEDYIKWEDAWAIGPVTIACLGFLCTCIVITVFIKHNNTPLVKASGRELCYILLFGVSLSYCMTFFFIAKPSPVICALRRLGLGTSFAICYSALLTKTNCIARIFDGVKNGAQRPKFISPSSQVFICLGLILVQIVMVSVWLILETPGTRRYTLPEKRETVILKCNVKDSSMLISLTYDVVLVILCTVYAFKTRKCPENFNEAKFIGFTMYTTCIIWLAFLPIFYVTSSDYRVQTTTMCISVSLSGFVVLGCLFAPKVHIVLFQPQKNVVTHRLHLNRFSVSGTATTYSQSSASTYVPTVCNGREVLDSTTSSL
The species entered for test [9] is Homo sapiens. As to the kind of experiment: Binding affinity to NMDA.

The source made the active and inactive calls. No cut-off for these calls is given here.

T1 sequence (P31421 whole entry): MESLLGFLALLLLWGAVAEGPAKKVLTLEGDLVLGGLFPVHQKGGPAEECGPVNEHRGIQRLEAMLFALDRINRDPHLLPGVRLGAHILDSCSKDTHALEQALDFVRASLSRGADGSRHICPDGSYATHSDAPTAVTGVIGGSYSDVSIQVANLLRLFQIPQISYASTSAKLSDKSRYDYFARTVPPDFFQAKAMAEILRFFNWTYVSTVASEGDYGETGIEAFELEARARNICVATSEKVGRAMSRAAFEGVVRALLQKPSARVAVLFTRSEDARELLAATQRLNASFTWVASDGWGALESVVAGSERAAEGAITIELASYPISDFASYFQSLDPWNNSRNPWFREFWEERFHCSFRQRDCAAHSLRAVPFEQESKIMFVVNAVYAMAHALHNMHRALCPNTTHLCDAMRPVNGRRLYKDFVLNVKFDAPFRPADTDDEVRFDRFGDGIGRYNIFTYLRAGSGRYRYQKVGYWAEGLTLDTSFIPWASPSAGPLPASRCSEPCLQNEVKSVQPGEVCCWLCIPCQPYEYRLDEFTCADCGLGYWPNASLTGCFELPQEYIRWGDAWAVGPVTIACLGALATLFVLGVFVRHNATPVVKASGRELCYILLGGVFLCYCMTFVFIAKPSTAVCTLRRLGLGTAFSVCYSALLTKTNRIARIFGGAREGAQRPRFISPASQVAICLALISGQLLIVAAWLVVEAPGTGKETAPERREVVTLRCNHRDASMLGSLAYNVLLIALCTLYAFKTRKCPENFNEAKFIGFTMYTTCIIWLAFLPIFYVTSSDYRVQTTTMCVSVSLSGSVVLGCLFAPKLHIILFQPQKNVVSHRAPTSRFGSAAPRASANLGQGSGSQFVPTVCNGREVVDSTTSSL
Chain of Metabotropic glutamate receptor 2 (Rattus norvegicus) (P31421 19-872 limits assumed): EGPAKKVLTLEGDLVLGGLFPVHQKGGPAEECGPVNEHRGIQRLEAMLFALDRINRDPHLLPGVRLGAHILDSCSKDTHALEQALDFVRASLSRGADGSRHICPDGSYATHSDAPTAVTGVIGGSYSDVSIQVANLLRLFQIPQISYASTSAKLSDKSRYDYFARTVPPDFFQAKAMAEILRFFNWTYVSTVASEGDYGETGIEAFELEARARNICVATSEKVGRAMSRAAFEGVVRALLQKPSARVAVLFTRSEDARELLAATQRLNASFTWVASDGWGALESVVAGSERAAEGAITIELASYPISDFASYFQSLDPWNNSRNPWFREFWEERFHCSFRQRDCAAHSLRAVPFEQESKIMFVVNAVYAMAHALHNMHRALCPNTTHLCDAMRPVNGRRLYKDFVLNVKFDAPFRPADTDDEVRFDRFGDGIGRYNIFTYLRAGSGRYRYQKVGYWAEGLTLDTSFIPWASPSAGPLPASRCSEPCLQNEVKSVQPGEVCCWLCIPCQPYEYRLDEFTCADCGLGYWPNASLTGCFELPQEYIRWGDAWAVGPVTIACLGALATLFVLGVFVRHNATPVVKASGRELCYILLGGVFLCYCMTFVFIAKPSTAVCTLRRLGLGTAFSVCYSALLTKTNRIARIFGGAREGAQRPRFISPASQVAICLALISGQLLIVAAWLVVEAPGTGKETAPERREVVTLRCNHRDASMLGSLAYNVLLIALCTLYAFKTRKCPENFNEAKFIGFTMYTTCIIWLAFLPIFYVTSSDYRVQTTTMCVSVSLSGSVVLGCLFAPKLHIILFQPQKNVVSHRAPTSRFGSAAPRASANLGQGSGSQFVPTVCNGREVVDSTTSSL

The IC50 is the midpoint of a concentration-inhibition curve. As for `N#Cc1cccc(C2=Nc3ccc(C#Cc4nccs4)cc3NC(=O)C2)c1`, the IC50 in test [1] is 300 nM.

`N#Cc1cccc(C2=Nc3ccc(C#Cc4ccccc4Cl)cc3NC(=O)C2)c1` gave an IC50 in test [1] of 76 nM.

`N#Cc1cccc(C2=Nc3ccc(C#Cc4ccc(F)cc4)cc3NC(=O)C2)c1` displayed an IC50 in test [1] of 34 nM.

`N#Cc1cccc(C2=Nc3ccc(C#Cc4cccs4)cc3NC(=O)C2)c1` came in with a concentration for half-maximal inhibition (IC50) in test [1] of 32 nM.

Consider `NC(=O)c1cccc(C2=Nc3ccc(C#Cc4ccccc4)cc3NC(=O)C2)c1`, for which the IC50 in [1] came to 358 nM.

In the case of `CN1CCN(c2cc3c(cc2C#Cc2ccccc2)NC(=O)CC(c2cccc(C#N)c2)=N3)CC1`, the IC50 in [1] was 278 nM.

On to `COc1ccc(C2C(C(=O)OCCN(C)C)=C(C)N=C3SC(c4c(Cl)cccc4Cl)=CN32)cc1` (configuration not stated), for which the half-inhibitory concentration (IC50) in test [2] is 30000 nM.

Turning to `O=C1CC(c2cccc(C(F)(F)F)c2)=Nc2ccc(C#Cc3ccccc3)cc2N1`, the IC50 in test [1] stood at 268 nM.

In test [1], `C=C(C)C#Cc1ccc2c(c1)NC(=O)CC(c1cccc(C#N)c1)=N2` yielded an IC50 of 400 nM.

In test [1], `N#Cc1cccc(C2=Nc3cc(N4CCSCC4)c(C#Cc4ccccc4)cc3NC(=O)C2)c1` returned a half-inhibitory concentration (IC50) of 40 nM.

For the molecule `O=C1CC(c2ccccc2)=Nc2ccc(C#Cc3ccccc3)cc2N1`, in [1], the concentration for half-maximal inhibition (IC50) turned out to be 26 nM.

`N#Cc1cccc(C2=Nc3cc(N4CCS(=O)(=O)CC4)c(C#Cc4ccccc4)cc3NC(=O)C2)c1` showed an IC50 in test [1] of 160 nM.

In the case of `O=C1CC(c2cccc(Cl)c2)=Nc2ccc(C#Cc3ccccc3)cc2N1`, the 50% inhibitory concentration (IC50) in [1] amounted to 80 nM.

`N#CCOc1cc2c(cc1C#Cc1ccccc1)NC(=O)CC(c1cccc(C#N)c1)=N2`: the IC50 in test [1] worked out at 18 nM.

In test [1], `N#Cc1cccc(C2=Nc3cc(OCC(N)=O)c(C#Cc4ccccc4)cc3NC(=O)C2)c1` gave a concentration for half-maximal inhibition (IC50) of 2400 nM.

`COc1cc2c(cc1C#Cc1ccccc1)NC(=O)CC(c1cccc(C#N)c1)=N2` came in with an IC50 in test [1] of 92 nM.

With `CN(C)c1cc2c(cc1C#Cc1ccccc1)NC(=O)CC(c1cccc(C#N)c1)=N2`, the concentration for half-maximal inhibition (IC50) in test [1] was 60 nM.

`Cc1ccc2c(c1)NC(=O)CC(c1cccc(C#N)c1)=N2` came in with a 50% inhibitory concentration (IC50) in test [1] of 2900 nM.

In test [1], `CN1CCN(C(=O)c2cccc(C3=Nc4ccc(C#Cc5ccccc5)cc4NC(=O)C3)c2)CC1` gave an IC50 of 1040 nM.

Take `CC(C)(C)NC(=O)COc1cc2c(cc1C#Cc1ccccc1)NC(=O)CC(c1cccc(C#N)c1)=N2`: the half-maximal inhibitory concentration (IC50) in test [1] stood at 26 nM.

In test [1], `O=C1CC(c2cccc(I)c2)=Nc2ccc(C#Cc3ccccc3)cc2N1` registered a half-maximal inhibitory concentration (IC50) of 154 nM.

In [1], `COCCOc1cc2c(cc1C#Cc1ccccc1)NC(=O)CC(c1cccc(C#N)c1)=N2` returned a half-maximal inhibitory concentration (IC50) of 28 nM.

In test [1], `CC(C)(O)C#Cc1ccc2c(c1)NC(=O)CC(c1cccc(C#N)c1)=N2` displayed an IC50 of 26000 nM.

For `COc1cccc(C2=Nc3ccc(C)cc3NC(=O)C2)c1`, the concentration for half-maximal inhibition (IC50) in test [1] turned out to be 6580 nM.

In test [1], `COc1cccc(C2=Nc3ccc(C#Cc4ccccc4)cc3NC(=O)C2)c1` gave an IC50 of 962 nM.

Regarding `COC1CCN(c2cc3c(cc2C#Cc2ccccc2)NC(=O)CC(c2cccc(C#N)c2)=N3)CC1`, in test [1], the IC50 was 82 nM.

In the case of `N#Cc1cccc(C2=Nc3ccc(C#Cc4ccccn4)cc3NC(=O)C2)c1`, in test [1], the IC50 was 870 nM.

Regarding `N#Cc1cccc(C2=Nc3cc(N4CC[S+]([O-])CC4)c(C#Cc4ccccc4)cc3NC(=O)C2)c1`, the IC50 in test [1] worked out at 446 nM.

With `CC(C)O/C(=C\n1cncn1)c1ccc(Cl)cc1Cl`, in [2], the concentration for half-maximal inhibition (IC50) amounted to 6000 nM.

The molecule `N#Cc1cccc(C2=Nc3cc(OCC(=O)O)c(C#Cc4ccccc4)cc3NC(=O)C2)c1` showed a half-maximal inhibitory concentration (IC50) in test [1] of 600 nM.

`N#Cc1cccc(C2=Nc3ccc(C#Cc4ccccc4)cc3NC(=O)C2)c1`: the result in test [3] and in test [8] was Active. For the same molecule, the result (in test [4]; in the test filed under Rattus norvegicus; in [6]; in the test listed under Homo sapiens [7]; in the test filed under Homo sapiens [9]) was inactive. This molecule also gave a half-maximal inhibitory concentration (IC50) in test [1] of 34 nM. The Activity in test [5] amounted to 25%.

In turn, `Cc1ccc2c(c1)NC(=O)CC(c1cccc(Cl)c1)=N2` yielded a concentration for half-maximal inhibition (IC50) in test [1] of 2820 nM.

The molecule `O=C1CC(c2cccc(C(=O)N3CCOCC3)c2)=Nc2ccc(C#Cc3ccccc3)cc2N1` came in with a half-maximal inhibitory concentration (IC50) in test [1] of 360 nM.

As for `Cc1ccc(C#Cc2ccc3c(c2)NC(=O)CC(c2cccc(C#N)c2)=N3)cc1`, the IC50 in [1] is 64 nM.

In [1], `N#Cc1cccc(C2=Nc3ccc(C#Cc4ccccc4F)cc3NC(=O)C2)c1` displayed an IC50 of 30 nM.

`N#Cc1cccc(C2=Nc3ccc(C#Cc4ccc(F)cc4F)cc3NC(=O)C2)c1`: the IC50 in test [1] came to 480 nM.

`COc1ccc(C#Cc2ccc3c(c2)NC(=O)CC(c2cccc(C#N)c2)=N3)cc1` had a half-inhibitory concentration (IC50) in test [1] of 68 nM.

`N#Cc1cccc(C2=Nc3cc(N4CCOCC4)c(C#Cc4ccccc4)cc3NC(=O)C2)c1` registered an IC50 in [1] of 378 nM.

In test [1], `Cc1ccc2c(c1)NC(=O)CC(c1cccc(C(F)(F)F)c1)=N2` registered an IC50 of 1530 nM.

The values are drawn from ChEMBL document CHEMBL1138280, “Synthesis and characterization of 8-ethynyl-1,3-dihydro-benzo[b][1,4]diazepin-2-one derivatives: new potent non-competitive metabotropic glutamate receptor 2/3 antagonists. Part 1” (Bioorg Med Chem Lett, 2007).
